# In paper PMC6138693, “Structural determinants of Rab11 activation by the guanine nucleotide exchange factor SH3BP5” (Nature Communications, 2018):
# T1: SH3BP5 (1–265), crystal construct (N-terminal GEF domain of SH3BP5) (UniProt O60239 1-265)
# T1 construct: A SeMet form made in E. coli B834 was used for phasing; source: E. coli BL21 C41, purified (GSTrap, TEV cleavage, HiTrap Q, SEC); not shown: GST, N-terminal, cleaved
# T1 sequence (looked up): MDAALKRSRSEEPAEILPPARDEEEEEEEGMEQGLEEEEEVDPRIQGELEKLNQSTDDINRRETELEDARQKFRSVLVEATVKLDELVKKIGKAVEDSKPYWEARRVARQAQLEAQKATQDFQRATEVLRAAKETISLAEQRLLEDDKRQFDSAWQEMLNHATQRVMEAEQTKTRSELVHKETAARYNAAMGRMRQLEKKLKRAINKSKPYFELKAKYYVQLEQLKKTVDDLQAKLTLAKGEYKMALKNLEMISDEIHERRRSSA
# T2: SH3BP5 (31–455), N-terminally truncated (UniProt O60239 31-455)
# T2 construct: also called N-terminally truncated SH3BP5 (31–455); N-terminally truncated variant of SH3BP5; source: E. coli BL21 C41, purified (GSTrap, TEV cleavage, HiTrap Q, SEC); not shown: GST, N-terminal, cleaved
# T2 sequence (looked up): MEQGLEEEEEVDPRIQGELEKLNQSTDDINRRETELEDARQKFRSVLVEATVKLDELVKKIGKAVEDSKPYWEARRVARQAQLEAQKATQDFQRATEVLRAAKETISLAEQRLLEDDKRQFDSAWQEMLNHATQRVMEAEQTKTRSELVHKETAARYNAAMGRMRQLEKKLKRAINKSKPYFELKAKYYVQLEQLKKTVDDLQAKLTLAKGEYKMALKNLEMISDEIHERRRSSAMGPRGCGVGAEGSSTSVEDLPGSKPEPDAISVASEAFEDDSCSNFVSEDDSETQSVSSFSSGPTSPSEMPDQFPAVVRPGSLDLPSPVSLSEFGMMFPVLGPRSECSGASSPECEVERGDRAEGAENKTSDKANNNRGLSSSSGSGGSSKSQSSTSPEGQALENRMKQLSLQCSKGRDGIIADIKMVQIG
# B1: Rab11A Q70L (1–213) (natural protein, human, UniProt P62491 1-213, looked up)
# chain: MGTRDDEYDYLFKVVLIGDSGVGKSNLLSRFTRNEFNLESKSTIGVEFATRSIQVDGKTIKAQIWDTAGLERYRAITSAYYRGAVGALLVYDIAKHLTYENVERWLKELRDHADSNIVIMLVGNKSDLRHLRAVPTDEARAFAEKNGLSFIETSALDSTNVEAAFQTILTEIYRIVSQKQMSDRRENDMSPSNNVVPIHVPPTTENKPKVQCC
# notes: called full-length in the results; dominant active switch II mutant Q70L; Nucleotide removed with EDTA before complex formation; The limits 1-213 are printed for the crystal only; A SeMet form was used for phasing; also called Rab11(Q70L); full-length Q70L Rab11A; source: E. coli BL21 C41, purified (GSTrap, TEV cleavage, HiTrap Q, SEC); not shown: GST, N-terminal, cleaved
# B2: WT Rab11A (1–211, C-term his) (natural protein, human, UniProt P62491 1-211, looked up)
# chain: MGTRDDEYDYLFKVVLIGDSGVGKSNLLSRFTRNEFNLESKSTIGVEFATRSIQVDGKTIKAQIWDTAGQERYRAITSAYYRGAVGALLVYDIAKHLTYENVERWLKELRDHADSNIVIMLVGNKSDLRHLRAVPTDEARAFAEKNGLSFIETSALDSTNVEAAFQTILTEIYRIVSQKQMSDRRENDMSPSNNVVPIHVPPTTENKPKVQ
# notes: Rab11A, residues 1-211, wild type; The limits 1-211 are printed for the HDX-MS experiment; In GEF assays it was loaded with Mant-GDP; also called Rab11A-His6; Rab11a-His6; source: E. coli BL21 C41, purified (GSTrap, TEV cleavage, HiTrap Q, SEC); not shown: GST, N-terminal, cleaved; His6, C-terminal, kept
# Experiments:
# Rab11A [1] = target: T3, Rab11A (Homo sapiens, UniProt P62491, S25N, form not given); experiment: Mant-GDP loading, then fluorescence release on GEF-driven exchange; format: binding; settings: labelled compound; without SH3BP5
# T3 construct: Rab11A with C-terminal His-tag kept, N-terminal GST cut by TEV; E. coli BL21 C41 (residues 1-211 given for the His-tagged HDX construct)
# T3 sequence (P62491 1-211 S25N, form open): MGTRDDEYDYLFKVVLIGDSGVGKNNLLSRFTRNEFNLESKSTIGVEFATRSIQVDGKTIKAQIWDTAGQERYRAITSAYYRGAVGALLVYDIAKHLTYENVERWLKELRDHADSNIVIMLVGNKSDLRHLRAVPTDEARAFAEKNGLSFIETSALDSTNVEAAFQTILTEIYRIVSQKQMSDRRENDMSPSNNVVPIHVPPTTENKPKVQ
# Rab4B = target: T4, Rab4B (Homo sapiens, UniProt P61018); experiment: Mant-GDP loading, fluorescence release assay; format: binding; settings: labelled compound; nucleotide site; Mg2+, 100 uM GTPgammaS, SH3BP5 as exchange factor
# T4 construct: recombinant in E. coli, N-terminal GST cut by TEV
# T4 sequence (P61018 whole entry): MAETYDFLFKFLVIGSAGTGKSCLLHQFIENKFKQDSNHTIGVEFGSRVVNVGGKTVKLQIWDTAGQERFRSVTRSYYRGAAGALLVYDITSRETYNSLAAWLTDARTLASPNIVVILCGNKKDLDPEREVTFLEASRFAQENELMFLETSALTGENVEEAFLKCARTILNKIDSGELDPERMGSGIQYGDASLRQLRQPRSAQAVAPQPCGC
# Rab11A [2] = target: T5, Rab11A (Homo sapiens, UniProt P62491, F36A, form not given); experiment: Mant-GDP loading, then fluorescence release on GEF-driven exchange; format: binding; settings: labelled compound; nucleotide site; Mg2+, 100 uM GTPgammaS, with and without SH3BP5
# T5 construct: Rab11A with C-terminal His-tag kept, N-terminal GST cut by TEV; E. coli BL21 C41 (residues 1-211 given for the His-tagged HDX construct)
# T5 sequence (P62491 1-211 F36A, form open): as the sequence (P62491 1-211 S25N, form open) above, with N25S, F36A counted along it
# Rab2A = target: T6, Rab2A (Homo sapiens, UniProt P61019); experiment: Mant-GDP loading, fluorescence release assay; format: binding; settings: labelled compound; nucleotide site; Mg2+, 100 uM GTPgammaS, SH3BP5 as exchange factor
# T6 construct: recombinant in E. coli, N-terminal GST cut by TEV
# T6 sequence (P61019 whole entry): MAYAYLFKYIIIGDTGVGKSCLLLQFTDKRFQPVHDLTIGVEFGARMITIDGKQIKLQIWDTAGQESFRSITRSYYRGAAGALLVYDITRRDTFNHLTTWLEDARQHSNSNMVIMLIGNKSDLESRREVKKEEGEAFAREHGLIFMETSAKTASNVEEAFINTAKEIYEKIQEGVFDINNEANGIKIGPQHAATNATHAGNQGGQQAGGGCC
# Rab25 = target: T7, Rab25 (Homo sapiens, UniProt P57735); experiment: Mant-GDP loading, then fluorescence release on GEF-driven exchange; format: binding; settings: labelled compound; nucleotide site; Mg2+, 100 uM GTPgammaS, SH3BP5 as exchange factor
# T7 construct: C-terminal His-tag, N-terminal GST cut by TEV; E. coli Rosetta
# T7 sequence (P57735 whole entry): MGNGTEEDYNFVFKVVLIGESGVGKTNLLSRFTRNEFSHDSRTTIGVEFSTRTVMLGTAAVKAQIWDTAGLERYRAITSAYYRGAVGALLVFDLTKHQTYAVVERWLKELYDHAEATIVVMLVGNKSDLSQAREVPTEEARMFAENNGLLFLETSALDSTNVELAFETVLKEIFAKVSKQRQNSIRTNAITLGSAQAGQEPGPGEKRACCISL
# Rab12 = target: T8, Rab12 (Homo sapiens, UniProt Q6IQ22); experiment: Mant-GDP loading, fluorescence release assay; format: binding; settings: labelled compound; nucleotide site; Mg2+, 100 uM GTPgammaS, SH3BP5 as exchange factor
# T8 construct: recombinant in E. coli, N-terminal GST cut by TEV
# T8 sequence (Q6IQ22 whole entry): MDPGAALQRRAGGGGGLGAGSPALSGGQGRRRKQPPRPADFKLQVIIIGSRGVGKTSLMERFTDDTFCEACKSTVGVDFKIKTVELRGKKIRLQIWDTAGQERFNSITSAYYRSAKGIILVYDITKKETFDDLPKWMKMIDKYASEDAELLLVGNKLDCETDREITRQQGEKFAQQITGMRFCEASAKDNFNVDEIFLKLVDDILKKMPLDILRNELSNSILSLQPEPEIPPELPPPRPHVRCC
# Rab11A [3] = target: T9, Rab11A (Homo sapiens, UniProt P62491, Q70L, form not given); experiment: Mant-GDP loading, then fluorescence release on GEF-driven exchange; format: binding; settings: labelled compound; nucleotide site; Mg2+, 100 uM GTPgammaS, SH3BP5 as exchange factor
# T9 construct: Rab11A with C-terminal His-tag kept, N-terminal GST cut by TEV; E. coli BL21 C41 (residues 1-211 given for the His-tagged HDX construct)
# Rab8 = target: T10, Rab8 (Homo sapiens, UniProt P61006); experiment: Mant-GDP loading, fluorescence release assay; format: binding; settings: labelled compound; nucleotide site; Mg2+, 100 uM GTPgammaS, SH3BP5 as exchange factor
# T10 construct: gene RAB8A; recombinant in E. coli, N-terminal GST cut by TEV
# T10 sequence (P61006 whole entry): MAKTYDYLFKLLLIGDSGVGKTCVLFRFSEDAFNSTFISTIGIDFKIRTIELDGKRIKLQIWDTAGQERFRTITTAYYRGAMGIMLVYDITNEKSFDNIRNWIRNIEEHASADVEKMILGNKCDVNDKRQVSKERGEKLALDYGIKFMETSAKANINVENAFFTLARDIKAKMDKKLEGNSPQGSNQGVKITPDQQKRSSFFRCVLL
# Rab11A [4] = target: T11, Rab11A (Homo sapiens, UniProt P62491, I44A, form not given); experiment: Mant-GDP loading, then fluorescence release on GEF-driven exchange; format: binding; settings: labelled compound; nucleotide site; Mg2+, 100 uM GTPgammaS, with and without SH3BP5
# T11 construct: Rab11A with C-terminal His-tag kept, N-terminal GST cut by TEV; E. coli BL21 C41 (residues 1-211 given for the His-tagged HDX construct)
# T11 sequence (P62491 1-211 I44A, form open): as the sequence (P62491 1-211 S25N, form open) above, with N25S, I44A counted along it
# Rab14 = target: T12, Rab14 (Homo sapiens, UniProt P61106); experiment: Mant-GDP loading, fluorescence release assay; format: binding; settings: labelled compound; nucleotide site; Mg2+, 100 uM GTPgammaS, SH3BP5 as exchange factor
# T12 construct: recombinant in E. coli, N-terminal GST cut by TEV
# T12 sequence (P61106 whole entry): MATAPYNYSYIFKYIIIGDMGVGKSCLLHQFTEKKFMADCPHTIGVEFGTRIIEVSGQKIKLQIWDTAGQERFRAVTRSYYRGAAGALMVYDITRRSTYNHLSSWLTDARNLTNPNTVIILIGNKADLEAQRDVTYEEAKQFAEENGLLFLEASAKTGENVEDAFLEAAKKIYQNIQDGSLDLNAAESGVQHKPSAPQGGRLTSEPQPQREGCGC
# Rab11A [5] = target: T13, Rab11A (Homo sapiens, UniProt P62491); experiment: Mant-GDP loading, then fluorescence release on GEF-driven exchange; format: binding; settings: labelled compound; nucleotide site; Mg2+, 100 uM GTPgammaS, SH3BP5 as exchange factor
# T13 construct: Rab11A with C-terminal His-tag kept, N-terminal GST cut by TEV; E. coli BL21 C41 (residues 1-211 given for the His-tagged HDX construct)
# Rab11A [6] = target: T14, Rab11A (Homo sapiens, UniProt P62491, K24R, form not given); experiment: as above; format: binding; settings: labelled compound; nucleotide site; Mg2+, 100 uM GTPgammaS, with and without SH3BP5
# T14 construct: Rab11A with C-terminal His-tag kept, N-terminal GST cut by TEV; E. coli BL21 C41 (residues 1-211 given for the His-tagged HDX construct)
# T14 sequence (P62491 1-211 K24R, form open): as the sequence (P62491 1-211 S25N, form open) above, with K24R, N25S counted along it
# Rab11A [7] = target: T15, Rab11A (Homo sapiens, UniProt P62491, S40F, form not given); experiment: as above; format: binding; settings: labelled compound; nucleotide site; Mg2+, 100 uM GTPgammaS, with and without SH3BP5
# T15 construct: Rab11A with C-terminal His-tag kept, N-terminal GST cut by TEV; E. coli BL21 C41 (residues 1-211 given for the His-tagged HDX construct)
# T15 sequence (P62491 1-211 S40F, form open): as the sequence (P62491 1-211 S25N, form open) above, with N25S, S40F counted along it
# Rab11A [8] = target: T16, Rab11A (Homo sapiens, UniProt P62491, R82C, form not given); experiment: as above; format: binding; settings: labelled compound; nucleotide site; Mg2+, 100 uM GTPgammaS, with and without SH3BP5
# T16 construct: Rab11A with C-terminal His-tag kept, N-terminal GST cut by TEV; E. coli BL21 C41 (residues 1-211 given for the His-tagged HDX construct)
# T16 sequence (P62491 1-211 R82C, form open): as the sequence (P62491 1-211 S25N, form open) above, with N25S, R82C counted along it
# Rab11A [9] = target: T17, Rab11A (Homo sapiens, UniProt P62491, L38P, form not given); experiment: as above; format: binding; settings: labelled compound; nucleotide site; Mg2+, 100 uM GTPgammaS, with and without SH3BP5
# T17 construct: Rab11A with C-terminal His-tag kept, N-terminal GST cut by TEV; E. coli BL21 C41 (residues 1-211 given for the His-tagged HDX construct)
# T17 sequence (P62491 1-211 L38P, form open): as the sequence (P62491 1-211 S25N, form open) above, with N25S, L38P counted along it
# [10] = target: T1, SH3BP5 (1–265), crystal construct …; experiment: SEC; SH3BP5 truncation and Rab11(Q70L) mixed at an equimolar amount, 5 min at 4 °C, 20 mM EDTA (pH 7.5) for 1 h at 4 °C, loaded onto Superdex 200 10/300; settings: both partners purified
# [11] = target: T2, SH3BP5 (31–455), N-terminally truncated; experiment: HDX-MS; 1.0 µM Rab11(Q70L) and 1.0 µM SH3BP5 (31–455), incubated on ice with 20 µM EDTA for 1 h; D2O buffer 10 mM HEPES pH 7.5, 500 mM NaCl; 3 s at 1 °C and 3, 30, 300 s at room temperature; settings: both partners purified
# [12] = target: T2, SH3BP5 (31–455), N-terminally truncated; experiment: HDX-MS; 0.4 µM C-terminally His-tagged Rab11A (1–211) and 0.4 µM SH3BP5 (31–455), with or without 0.2 mg/mL nickelated lipid vesicles; D2O buffer 10 mM HEPES pH 7.5, 200 mM NaCl; 3, 30, 300, 3000 s at room temperature; settings: both partners purified
molecule,measurement,setting,value
"CNc1ccccc1C(=O)O[C@H]1C[C@H](n2cnc3c(=O)[nH]c(N)nc32)O[C@@H]1COP(=O)(O)OP(=O)(O)O [Mant-GDP, 3-(N-methyl-anthraniloyl)-2-deoxy-GDP]","Mant-GDP loading, then fluorescence release on GEF-driven exchange",Rab11A [1],Rab11A (S25N) caused rapid release of Mant-GDP even in the absence of SH3BP5
same,"Mant-GDP loading, fluorescence release assay",Rab4B,panel of evolutionarily related Rab GTPases loaded with Mant-GDP
same,"Mant-GDP loading, then fluorescence release on GEF-driven exchange",Rab11A [2],"F36 and I44 residues, with mutation of these residues to Alanine"
same,"Mant-GDP loading, fluorescence release assay",Rab2A,panel of evolutionarily related Rab GTPases loaded with Mant-GDP
same,"Mant-GDP loading, then fluorescence release on GEF-driven exchange",Rab25,Rab11 isoforms Rab11A and Rab25 loaded with the fluorescent GDP analog
same,"Mant-GDP loading, fluorescence release assay",Rab12,panel of evolutionarily related Rab GTPases loaded with Mant-GDP
same,"Mant-GDP loading, then fluorescence release on GEF-driven exchange",Rab11A [3],GEF assays on Q70L Rab11A showed a slightly elevated GEF-mediated nucleotide exchange rate
same,"Mant-GDP loading, fluorescence release assay",Rab8,panel of evolutionarily related Rab GTPases loaded with Mant-GDP
same,"Mant-GDP loading, then fluorescence release on GEF-driven exchange",Rab11A [4],"F36 and I44 residues, with mutation of these residues to Alanine"
same,"Mant-GDP loading, fluorescence release assay",Rab14,panel of evolutionarily related Rab GTPases loaded with Mant-GDP
same,"Mant-GDP loading, then fluorescence release on GEF-driven exchange",Rab11A [5],Rab11 isoforms Rab11A and Rab25 loaded with the fluorescent GDP analog
same,"Mant-GDP loading, then fluorescence release on GEF-driven exchange",Rab11A [6],this mutant had rapid nucleotide exchange even in the absence of SH3BP5
same,"Mant-GDP loading, then fluorescence release on GEF-driven exchange",Rab11A [7],"Rab2A (L38P), Rab8 (S40F), and Rab14 (K41P) were also found to decrease GEF activity"
same,"Mant-GDP loading, then fluorescence release on GEF-driven exchange",Rab11A [8],with R82 only partially decreasing SH3BP5 GEF activity
same,"Mant-GDP loading, then fluorescence release on GEF-driven exchange",Rab11A [9],"Rab2A (L38P), Rab8 (S40F), and Rab14 (K41P) were also found to decrease GEF activity"
B1,binding result,[10],binds
same,binding result,[11],binds
B2,binding result,[12],binds
